Results from patent publication US11464854B2, “Methods and compositions relating to adjuvants” (Children's Medical Center Corporation, priority 2017, dated 2022).

Columns and labels:
adult human PBMCs = assay: Adult human PBMC stimulation
human TLR7 = molecular target: T1, human TLR7 (Homo sapiens, UniProt Q9NYK1); assay: HEK293 NF-kB SEAP reporter assay, human TLR7; type: cell-based; settings: among six IMQ and OA compounds, SEAP fold change
T1 construct: host or cells: HEK293 with NF-kB-responsive SEAP reporter
T1 sequence (Q9NYK1 27-1049): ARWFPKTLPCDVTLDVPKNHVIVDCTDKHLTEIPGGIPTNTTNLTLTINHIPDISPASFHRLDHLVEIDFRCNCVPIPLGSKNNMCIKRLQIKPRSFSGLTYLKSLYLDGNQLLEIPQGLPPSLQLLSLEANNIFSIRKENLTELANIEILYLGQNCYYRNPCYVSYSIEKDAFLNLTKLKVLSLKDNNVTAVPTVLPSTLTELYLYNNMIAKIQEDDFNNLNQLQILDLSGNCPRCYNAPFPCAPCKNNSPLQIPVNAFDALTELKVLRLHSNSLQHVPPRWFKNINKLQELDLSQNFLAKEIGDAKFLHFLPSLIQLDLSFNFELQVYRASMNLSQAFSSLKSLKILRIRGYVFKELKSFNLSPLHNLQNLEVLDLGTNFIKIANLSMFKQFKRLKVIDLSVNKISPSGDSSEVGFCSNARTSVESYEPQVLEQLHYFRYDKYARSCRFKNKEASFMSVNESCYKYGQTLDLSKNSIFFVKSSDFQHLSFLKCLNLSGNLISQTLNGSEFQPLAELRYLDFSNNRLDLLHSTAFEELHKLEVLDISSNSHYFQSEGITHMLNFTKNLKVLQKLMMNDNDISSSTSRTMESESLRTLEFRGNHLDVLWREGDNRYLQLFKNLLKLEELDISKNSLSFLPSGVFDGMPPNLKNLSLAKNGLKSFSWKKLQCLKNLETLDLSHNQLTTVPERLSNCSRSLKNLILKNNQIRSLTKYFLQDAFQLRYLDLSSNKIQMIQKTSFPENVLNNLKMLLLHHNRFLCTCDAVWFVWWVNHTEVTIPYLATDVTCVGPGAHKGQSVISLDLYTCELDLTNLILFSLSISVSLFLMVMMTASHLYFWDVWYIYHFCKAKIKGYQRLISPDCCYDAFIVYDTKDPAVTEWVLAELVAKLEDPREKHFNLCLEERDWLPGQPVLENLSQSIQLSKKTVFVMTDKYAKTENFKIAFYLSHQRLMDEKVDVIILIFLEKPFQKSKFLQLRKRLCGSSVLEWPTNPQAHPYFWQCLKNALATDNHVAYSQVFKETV
Experimental: Human embryonic kidney (HEK)293 cells expressing human TLR7 or TLR8 with an NF-κB-responsive secreted embryonic alkaline phosphatase (SEAP) reporter gene were obtained from Novus Biologicals (Littleton, Colo.) and Invivogen (San Diego, Calif.), respectively. Cells were maintained in DMEM with 10% HI-FBS and selection antibiotics per the manufacturer's instructions. Cells were plated at 5×10^5 cells/96-well and stimulated with indicated agonist(s) for 24 h. Supernatants were harvested and analyzed for NF-κB/SEAP activation using the QuantiBlue™ kit (Invivogen). Values are expressed as fold change in OD650 over vehicle-only treated samples.

[1] = test system: human neonatal and adult blood; assay: Human whole blood assay, cytokine induction (CRX adjuvants); type: cell-based
Experimental: Human blood was anti-coagulated with 20 units/ml pyrogen-free sodium heparin (American Pharmaceutical Partners, Inc.; Schaumberg, Ill.). All blood products were kept at room temperature and processed within 4 hours from collection. Human whole blood assays were completed as previously described. Briefly, neonatal cord blood or adult whole blood (WB) was mixed 1:1 with sterile pre-warmed (37° C.) RPMI 1640 medium (Invitrogen; Carlsbad, Calif.) and 180-225 μl of the 1:1 suspension was added to each well of a 96 well U-bottom plate (Becton Dickinson; Franklin Lakes, N.J., USA) containing 20-25 μl freshly prepared specific TLRAs at 10× the final concentration. Suspensions containing 200-250 μl/well were gently mixed by pipetting and incubated for 6 hours at 37° C. in a humidified incubator at 5%, CO2. After culture, plates were centrifuged at 500×g and ˜100-150 μl of supernatant was carefully removed by pipetting without disturbing the cell pellet. Supernatants derived from human leukocyte stimulations were assayed by ELISA for TNF and IFNγ (BD Biosciences; San Jose, Calif., USA).
Additionally, for both newborn and adult readouts, cytokine and chemokine expression profiles in cell culture supernatants and peripheral blood plasma were measured using customized Milliplex™ human cytokine/chemokine magnetic bead panels (Millipore; Billerica, Mass., USA). Assays were analyzed on the Luminex® 100/200™ System employing xPOTENT® software (Luminex; Austin, Tex.) and Millipore Milliplex Analyst™ (version 3.5.5.0). The minimum threshold for each analyte was set at the minimum detectable concentration for a given assay, defined as three standard deviations above the mean background. CL075 (TLR8/7) was purchased from InvivoGen (San Diego, Calif.) and used at the concentrations noted in the figure legends.

[2] = test system: cytokine and IFN-inducible gene expression in draining lymph nodes and spleen; type: in vivo, mice; settings: mice
TNF = assay: Rat pharmacodynamics: serum TNF by ELISA; type: in vivo, rats; settings: rats, single IM or SC administration
[3] = 1 μM and 10 μM, newborn over adult whole blood

For CCCCc1nc2c(N)nc3ccccc3c2n1CCO [CRX-649], the “expression of CD123, HLA-D, CD80 and CD86” value (adult human PBMCs; 24 h, compared to unstimulated cells, flow cytometry) was “increased expression”, the cytokine skewing (adult human PBMCs; adult PBMCs) was “pro-inflammatory biased” and the “potency for hTLR7” value (human TLR7) was “greatest potency”. The “CXCL8, CXCL10, CCL2 and GM-CSF production (multiplex)” value [1, 3] was “greater CRX-649 induced production in newborn blood”, the “production of IL-1β, L-6, IL-10, and IL-12p40 (multiplex)” value [1, 3] was “concentration-dependent production” and the “IFNγ production in newborn blood relative to similarly treated adult blood” value ([1]; 10 μM) was “twice”. The “TNF production in newborn cord blood versus adult” value ([1]; 6 hours) was “more than adult-like age-specific potency and effectiveness”, the IFNγ production ([1]; newborn blood, 10 μM, 6 hours) was ~1200 pg/mL and the “induction of IFNγ” value ([1]; newborn cord blood, 6 hours) was “greatest potency, effectiveness and IFNγ polarization”.

For CCCCCCCCCCCCCCCCCC(=O)NCCCCOn1c(CCCC)nc2c(N)nc3ccccc3c21 [3M-052, N-[4-[(4-amino-2-butyl-1H-imidazo[4,5-c]quinolin-1-yl)oxy]butyl]octadecanamide], the “IFN-related and TLR7 gene expression in the spleens” value ([2]; SC administration) was “robust”, the “cytokine mRNA expression” value ([2]; SC administration) was “little if any” and the “time of peak cytokine mRNA expression” value ([2]; single SC dose, lymph node tissue and splenocytes) was 6 h. The “Blood tumor necrosis factor (TNF) concentrations, peak” value (TNF) was “no induced systemic TNF detectable”.
